The results in this text go back to PMC7823780 (Viruses, 2021).

Data set [1] deals with Echo9. Nature of the data set: Plaque reduction assay Echo9. Type of data set: cell-based, human enterovirus B. The note with it: Enterovirus B; 50% reduction of plaque number, LLC-MK2 cells.
Data set [2] relates to EV-D68. Kind of data set: Inhibition of EV-D68-induced cytopathogenicity in HeLa cells (MTT). The note with it: for EC50: Enterovirus D, EVD68, m.o.i. 0.01. Type of data set: cell-based, human enterovirus D 68 strain Fermon. For orientation: Cytopathic effects are the visible damage that an infection or toxin causes in cultured cells.
Data set [3] relates to CV-B5. Kind of data set: Plaque reduction assay CV-B5. Format: cell-based, human enterovirus B. The note with it: Enterovirus B. A general note: Plaques are areas of infected cells; plaque reduction assays count them against a control.
Data set [4] is described as follows: Cytotoxicity assay, MTT, mock-infected HeLa. Format: cell-based. The note with it: human, mock-infected HeLa cells.
A short description of data set [5]: Cytotoxicity assay, MTT, mock-infected BHK-21. Format: cell-based. The note with it: Syrian hamster, mock-infected BHK-21 cells; mock-infected BHK-21, MTT.
Data set [6] has as its system PV-1. Kind of data set: microbe, parasite or virus in culture. The note with it: Enterovirus C, read-out: EC50 PV-1. Format: cell-based.
For data set [7], the system named is CV-B4. Kind of data set: Plaque reduction assay CV-B4. Format: cell-based, human enterovirus B. The note with it: for EC50: Enterovirus B.
Data set [8] in a line: Cytotoxicity assay, MTT, mock-infected Vero-76. Type of data set: cell-based. The note with it: Cercopithecus aethiops, mock-infected Vero-76 cells, mock-infected Vero-76, MTT; for CC50: value printed without *; for CC50 at 3 days: value marked *, after 3 * days.
Data set [9] concerns CV-B3. Kind of data set: Plaque reduction assay CV-B3. Format: cell-based, human enterovirus B. The note with it: Enterovirus B.
A short description of data set [10]: Cytotoxicity assay, mock-infected LLC-MK2. The note with it: Macaca mulatta, mock-infected LLC-MK2 cells, mock-infected LLC-MK2, MTT. Format: cell-based.
Data set [11] is described as follows: Cytotoxicity assay, MTT, mock-infected MDBK. Type of data set: cell-based. The note with it: bovine, mock-infected MDBK cells.
Where [12] appears, read: CVB5, 50% reduction of plaque number, read-out: EC50 CV-B5.
The mark [13] stands for this setting: CVB4, 50% reduction of plaque number, read-out: EC50 CV-B4.
The mark [14] stands for this setting: CVB3, 50% reduction of plaque number, read-out: EC50 CV-B3.

Like-named read-outs stand apart in the source and are kept apart here.

One may read the EC50 as the concentration needed to bring the measured effect to its halfway point. In general, CC50 refers to the concentration at which the toxic effect on the cells reaches its halfway point.

`CC(C)(C)c1ccc(-c2nc3cc(F)ccc3[nH]2)cc1` [Compound 4b, 2-(4-(Tert-Butyl)phenyl)-5-Fluoro-1H-Benzo[d]imidazole]: the EC50 in [1] is more than 100 µM; in [2], more than 100 µM; in data set [3] (setting [12]), more than 100 µM; in [6], 20 µM; in data set [7] (setting [13]), more than 100 µM; in [9] (setting [14]), more than 100 µM. Moreover, the CC50 at 4 days in [4] is more than 100 µM. The CC50 in [5], in data set [8] and in data set [11] was more than 100 µM each time. The same compound displayed a CC50 at 5 days in data set [10] of more than 100 µM.
For `CC(C)(C)c1ccc(-c2nc3ccccc3[nH]2)cc1` [Compound 1b, 2-(4-(Tert-Butyl)phenyl)-1H-Benzo[d]imidazole], the EC50 in [1] is more than 6.5 µM; in [2], more than 9 µM; in data set [3] (setting [12]), 7 µM; in data set [6], 9 µM; in data set [7] (setting [13]), more than 46 µM; in data set [9] (setting [14]), more than 46 µM. The compound also displayed a CC50 at 4 days in data set [4] of 9 µM. Further, the values for the CC50 in data set [5], in [8] and in data set [11] were 20 µM, 46 µM and 9 µM, respectively. The same compound showed a CC50 at 3 days in data set [8] of 40 µM. Also, it took 6.5 µM to reach half-maximal cytotoxicity in [10] (CC50 at 5 days).
`CC(C)(C)c1ccc(-c2nc3cc(F)c(F)cc3[nH]2)cc1` [Compound 5b, 2-(4-(Tert-Butyl)phenyl)-5,6-Difluoro-1H-Benzo[d]imidazole]: the EC50 in [1] was more than 100 µM; in data set [2], 4 µM; in [3] (setting [12]) it was more than 100 µM; in data set [6] it was 10 µM; in [7] (setting [13]) it was more than 100 µM; in data set [9] (setting [14]) it was more than 100 µM. The compound further gave a CC50 at 4 days in data set [4] of more than 100 µM. Besides, the CC50 in data set [5], in data set [8] and in data set [11] was more than 100 µM in each case. The compound also returned a CC50 at 5 days in [10] of more than 100 µM.
Turning to `C[C@@]1(O)[C@H](O)[C@@H](CO)O[C@H]1n1ccc(N)nc1=O` [NM 107, 2′-C-methylcytidine, reference compound], the EC50 was determined as 6 µM in data set [6] and 29 µM in data set [7] (setting [13]). For the same compound, in data set [8], the CC50 was more than 100 µM.
As to `CC(C)c1ccc(-c2nc3ccccc3[nH]2)cc1` [Compound 1a, 2-(4-Isopropylphenyl)-1H-Benzo[d]imidazole], the EC50 is more than 6 µM in data set [1]; more than 9 µM in data set [2]; more than 60 µM in [3] (setting [12]); 11.5 µM in data set [6]; more than 60 µM in [7] (setting [13]); more than 60 µM in data set [9] (setting [14]). The same compound displayed a CC50 at 4 days in data set [4] of 9 µM. Also, the CC50 in [5] is 36 µM; in data set [8], 60 µM; in data set [11], 65 µM. Besides, in [8], the CC50 at 3 days was determined as 24 µM. In data set [10], the CC50 at 5 days is 6 µM.
As for `CCOC(=O)/C=C/[C@H](C[C@@H]1CCNC1=O)NC(=O)[C@@H](CC(=O)[C@@H](NC(=O)c1cc(C)on1)C(C)C)Cc1ccc(F)cc1` [Rup, Rupintrivir, reference compound], in [6], the EC50 came out at 0.07 µM. The CC50 in data set [8] is more than 100 µM.
In the case of `CC(C)(C)c1ccc(-c2nc3cc(Cl)c(Cl)cc3[nH]2)cc1` [Compound 3b, 2-(4-(Tert-Butyl)phenyl)-5,6-Dichloro-1H-Benzo[d]imidazole], the EC50 in data set [1] is more than 12 µM; in data set [2] it was more than 6.4 µM; in data set [3] (setting [12]) it was 2 µM; in data set [7] (setting [13]), more than 9 µM; in data set [9] (setting [14]) it was more than 9 µM. In [4], this compound yielded a CC50 at 4 days of 6.4 µM. Also, the values for the CC50 in data set [5], in [8] and in [11] were 9 µM, 9 µM and 7 µM, respectively. Besides, the 50% cytotoxic concentration (CC50) at 5 days in data set [10] amounted to 12 µM.
For the compound `CC(C)c1ccc(-c2nc3cc(Cl)c(Cl)cc3[nH]2)cc1` [Compound 3a, 5,6-Dichloro-2-(4-Isopropylphenyl)-1H-Benzo[d]imidazole], the EC50 is more than 7 µM in data set [1]; more than 8 µM in data set [2]; more than 25.5 µM in data set [3] (CVB5, read-out: EC50 CV-B5); more than 25.5 µM in [6]; more than 25.5 µM in data set [7] (CVB4, read-out: EC50 CV-B4); more than 25.5 µM in [9] (CVB3, read-out: EC50 CV-B3). In data set [4], the CC50 at 4 days was found to be 8 µM. Besides, the values for the CC50 in data set [5], in data set [8] and in data set [11] were 8 µM, 25.5 µM and 2.5 µM, respectively. In [8], this compound registered a CC50 at 3 days of 8 µM. In data set [10], this compound came in with a 50% cytotoxic concentration (CC50) at 5 days of 7 µM.
As to `CC(C)c1ccc(-c2nc3cc(F)ccc3[nH]2)cc1` [Compound 4a, 5-Fluoro-2-(4-Isopropylphenyl)-1H-Benzo[d]imidazole], the EC50 in [1] is more than 29.5 µM; in data set [2], more than 100 µM; in data set [3] (setting [12]), more than 100 µM; in data set [6], not below 100 µM; in [7] (setting [13]), more than 100 µM; in data set [9] (setting [14]), more than 100 µM. The CC50 at 4 days in [4] is more than 100 µM. Besides, the CC50 in [5], in data set [8] and in data set [11] was more than 100 µM each time. The CC50 at 5 days in data set [10] worked out at 29.5 µM.
Consider `Cc1cc(CCCOc2c(C)cc(-c3noc(C(F)(F)F)n3)cc2C)on1` [Plc, Pleconaril, reference compound], for which the half-maximal effective concentration (EC50) in data set [1] worked out at 0.1 µM; in data set [2], 0.3 µM; in data set [3] (setting [12]) it was 2 ± 0.5 µM; in data set [9] (setting [14]) it was 2 ± 0.005 µM. In data set [8], this compound registered a CC50 of more than 100 µM. The compound further gave a CC50 at 5 days in [10] of more than 100 µM.
Turning to `CC(C)c1ccc(-c2nc3cc(Cl)ccc3[nH]2)cc1` [Compound 2a, 5-Chloro-2-(4-Isopropylphenyl)-1H-Benzo[d]imidazole], the EC50 in [1] was 8 µM; in data set [2], more than 100 µM; in data set [3] (setting [12]), 10 µM; in data set [6], 9 µM; in data set [7] (setting [13]) it was not below 100 µM; in data set [9] (setting [14]) it was 17 µM. The CC50 at 4 days in data set [4] worked out at 100 µM. For the same compound, the CC50 is more than 100 µM in data set [5], more than 100 µM in data set [8] and 80 µM in data set [11]. The “EC50 CV-B4” value in [7] (50% reduction of plaque number) is “No activity”. This compound also returned a 50% cytotoxic concentration (CC50) at 5 days in [10] of more than 100 µM.
Regarding `CC(C)c1ccc(-c2nc3cc(F)c(F)cc3[nH]2)cc1` [Compound 5a, 5,6-Difluoro-2-(4-Isopropylphenyl)-1H-Benzo[d]imidazole], the concentration giving a half-maximal response (EC50) in data set [1] was more than 100 µM; in data set [2] it was more than 100 µM; in data set [3] (setting [12]), more than 100 µM; in [6] it was 12 µM; in data set [7] (setting [13]), more than 100 µM; in [9] (setting [14]), more than 100 µM. In [2] (m.o.i. 0.01), the “EC50 EV-D68” value was “not active”. Besides, the CC50 at 4 days in data set [4] is more than 100 µM. Also, the CC50 in [5], in [8] and in [11] was more than 100 µM in each case. In addition, the CC50 at 5 days in data set [10] amounted to 100 µM.
